Results: patent US9758484B2 (Asieris Pharmaceutical Technologies Co., Ltd., priority 2013, dated 2017)
Several values for one entry are separate records, joined by “and”; a condition that tells them apart may be missing. Equal values may be shown once. Where a name gives a salt, the structure may show the parent alone. Read-outs that look alike come from different tables or passages of the source.

Assays:
[1] = Solubility tests of nitroxoline and nitroxoline salts in aqueous buffers and water; assay type: physicochemical; details: for solubility at 30 min: thermodynamic from solid; for solubility at a physiologically relevant pH: pH of 4.5 to 8, in contrast to nitroxoline and acid addition salts
Method: 1) Aqueous buffer solutions with varying pH were prepared as follows: • i. Water: distilled water; • ii. pH=1.2 buffer: 7.65 mL 36.5% HCl solution was diluted to 1000 mL with water; • iii. pH=4.5 buffer: 18 g sodium acetate and 9.8 mL acetic acid were diluted to 1000 mL with water; • iv. pH=5.0 buffer: sodium hydroxide was added to 0.2 mol/L monosodium phosphate (NaH2PO4) solution until the pH was adjusted to 5.0; • v. pH=6.0 buffer: 18 g sodium acetate were added into 20 mL acetic acid solution (1 M), and the mixture was diluted to 500 mL with water; • vi. pH=6.8 buffer: 250 mL of 0.2 M monopotassium phosphate (KH2PO4) solution were added to 118 mL of 0.2 M sodium hydroxide solution, and the mixture was diluted to 1000 mL with water; • vii. pH=7.4 buffer: 1.36 g monopotassium phosphate (KH2PO4) were added to 79 mL of 0.1 M sodium hydroxide solution, and the mixture was diluted to 200 mL with water; and • viii pH=8.0 buffer: 5.59 g potassium biphosphate (K2HPO4) and 0.41 g monopotassium. phosphate (KH2PO4) were added to 1000 mL water and mixed.
2) Solubility tests were performed generally as follows:
Under a temperature of 25±2° C., 10 mg of each salt sample was weighed and added to a 100 mL volumetric bottle. 0.25 mL buffer was added to the bottle, which was shaken vigorously for 30 seconds every 5 min.
If the sample was not completely dissolved, 0.7 mL of the same buffer was added, and dissolution was observed by the same shaking procedure.
If the sample was not completely dissolved, 8.5 mL of the same buffer was added, and dissolution was observed by the same shaking procedure.
If the sample was not completely dissolved, 85 mL of the same buffer was added, and dissolution was observed by the same shaking procedure.

[2] = In vivo urinary excretion of nitroxoline and nitroxoline salts in beagle dogs
Method: Urine samples were collected in the following periods of time: 0-2, 2-4, 4-6, 6-8, 8-24 h. Urine samples were analyzed by LC/MS/MS method utilizing an Agilent 1100 HPLC system with a CTC auto-sampler, an AB API4000 mass spectrometer, and a column of ACQUITY UPLC BEH C18 (2.1*50 mm) Dexamethasone was used as an internal standard. […] The range of linearity was determined to be 25˜5000 ng/mL.
(§1) The same study was repeated with APL-1092, nitroxoline lysine salt.

[3] = In vivo urinary excretion of nitroxoline and nitroxoline salts in mice; design: species or system CD-1 ICR mice
Method: Urine samples were collected in the following periods of time: 0-2, 2-6, 6-24 h. Due to the small volume of the urine from mice, the collecting system in the cage was washed with water at each collecting time. Urine samples and their wash samples were analyzed according to the same methods used in the beagle dog study (Example 24).
as §1

[4] = distilled water, 25 °C, water, distilled water, 25±2° C., read-out: Solubility water
[5] = pH 1.2 buffer (dilute HCl), 25 °C, pH 1.2, simulated gastric fluid, pH=1.2 buffer, 25±2° C., read-out: Solubility pH 1.2
[6] = pH 4.5 acetate buffer, 25 °C, pH 4.5, aqueous buffer, pH=4.5 buffer, 25±2° C., read-out: Solubility pH 4.5
[7] = pH 5.0 phosphate buffer, 25 °C, pH 5, aqueous buffer, pH=5.0 buffer, 25±2° C., read-out: Solubility pH 5
[8] = pH 6.0 acetate buffer, 25 °C, pH 6, aqueous buffer, pH=6.0 buffer, 25±2° C., read-out: Solubility pH 6
[9] = pH 6.8 phosphate buffer, 25 °C, pH 6.8, aqueous buffer, pH=6.8 buffer, 25±2° C., read-out: Solubility pH 6.8
[10] = pH 7.4 phosphate buffer, 25 °C, pH 7.4, aqueous buffer, buffer headed 'pH .4', 25±2° C., read-out: Solubility pH .4
[11] = pH 8.0 phosphate buffer, 25 °C, pH 8, aqueous buffer, pH=8.0 buffer, 25±2° C., read-out: Solubility pH 8.0

## Cl.O=[N+]([O-])c1ccc(O)c2ncccc12 [APL-1071, Nitroxoline HCl Salt]
[1]; aqueous buffers pH 1.2 to 8, 25 °C, pH 1.2, aqueous buffer, all pHs tested, from pH 1.2 to 8, read-out: solubility at all pHs tested
  solubility at 30 min: < 100 µg/mL
[1]; [4]
  solubility at 30 min: < 100 µg/mL
[1]; [5]
  solubility at 30 min: < 100 µg/mL
[1]; [6]
  solubility at 30 min: < 100 µg/mL
[1]; [7]
  solubility at 30 min: < 100 µg/mL
[1]; [8]
  solubility at 30 min: < 100 µg/mL
[1]; [9]
  solubility at 30 min: < 100 µg/mL
[1]; [10]
  solubility at 30 min: < 100 µg/mL
[1]; [11]
  solubility at 30 min: < 100 µg/mL

## O=[N+]([O-])c1ccc([O-])c2ncccc12.[Na+] [APL-1072, Nitroxoline Sodium Salt]
[1]; [4]
  solubility at 30 min: 1000 to 10000 µg/mL
[1]; [5]
  solubility at 30 min: < 100 µg/mL
[1]; [6]
  solubility at 30 min: < 100 µg/mL
[1]; [7]
  solubility at 30 min: < 100 µg/mL
[1]; [8]
  solubility at 30 min: < 100 µg/mL
[1]; [9]
  solubility at 30 min: < 100 µg/mL
[1]; [10]
  solubility at 30 min: < 100 µg/mL
[1]; [11]
  solubility at 30 min: < 100 µg/mL
[1]
  solubility at a physiologically relevant pH: significantly improved solubility

## Br.O=[N+]([O-])c1ccc(O)c2ncccc12 [APL-1074, Nitroxoline HBr Salt]
[1]; [4]
  solubility at 30 min: < 100 µg/mL
[1]; [5]
  solubility at 30 min: 1000 to 10000 µg/mL
[1]; [6]
  solubility at 30 min: < 100 µg/mL
[1]; [7]
  solubility at 30 min: < 100 µg/mL
[1]; [8]
  solubility at 30 min: < 100 µg/mL
[1]; [9]
  solubility at 30 min: < 100 µg/mL
[1]; [10]
  solubility at 30 min: < 100 µg/mL
[1]; [11]
  solubility at 30 min: < 100 µg/mL

## O=[N+]([O-])c1ccc(O)c2ncccc12 [APL-1075, Nitroxoline HNO3 Salt]
[1]; [6]
  solubility at 30 min: < 100 µg/mL
[1]; [7]
  solubility at 30 min: < 100 µg/mL
[1]; [8]
  solubility at 30 min: < 100 µg/mL
[1]; [9]
  solubility at 30 min: < 100 µg/mL

## O=[N+]([O-])c1ccc([O-])c2ncccc12.[K+] [APL-1077, Nitroxoline Potassium Salt]
[1]; [4]
  solubility at 30 min: 1000 to 10000 µg/mL
[1]; [5]
  solubility at 30 min: < 100 µg/mL
[1]; [6]
  solubility at 30 min: < 100 µg/mL
[1]; [7]
  solubility at 30 min: < 100 µg/mL
[1]; [8]
  solubility at 30 min: < 100 µg/mL
[1]; [9]
  solubility at 30 min: < 100 µg/mL
[1]; [10]
  solubility at 30 min: < 100 µg/mL
[1]; [11]
  solubility at 30 min: 1000 to 10000 µg/mL
[1]
  solubility at a physiologically relevant pH: significantly improved solubility

## O=[N+]([O-])c1ccc(O)c2ncccc12 [APL-1092, Nitroxoline Lysine Salt]
[2]; In Dogs, 75 mg APL-1202 or equivalent amount
  24-Hr Accumulated drug in the urine: 617 µg
[2]; beagle dogs, dosed at the equivalent amount of nitroxoline in moles
  increase in drug excretion in the urine as compared to nitroxoline: more than five times
[2]; individual dogs, oral tablet, 75 mg nitroxoline equivalent
  f (%): percentage of total mass of excreted drug versus the dose amount: 1.1% and 0.419% and 0.949%
[2]; individual dogs, oral tablet, 75 mg nitroxoline equivalent, 0-24 hr
  Total mass of nitroxoline in urine: 825000 ng and 313943 ng and 711720 ng
[2]; individual dogs, oral tablet, 75 mg nitroxoline equivalent, collection 0-2 hr
  Mass of nitroxoline in urine, 0-2 hr: 0 ng and 15153 ng and 163020 ng
[2]; individual dogs, oral tablet, 75 mg nitroxoline equivalent, collection 2-4 hr
  Mass of nitroxoline in urine, 2-4 hr: 0 ng and 130150 ng and 219300 ng
[2]; individual dogs, oral tablet, 75 mg nitroxoline equivalent, collection 4-6 hr
  Mass of nitroxoline in urine, 4-6 hr: 0 ng (2×) and 96900 ng
[2]; individual dogs, oral tablet, 75 mg nitroxoline equivalent, collection 6-8 hr
  Mass of nitroxoline in urine, 6-8 hr: 0 ng (2×) and 22165 ng
[2]; individual dogs, oral tablet, 75 mg nitroxoline equivalent, collection 8-24 hr
  Mass of nitroxoline in urine, 8-24 hr: 825000 ng and 49575 ng and 329400 ng
[2]; mean of dogs, oral tablet, 75 mg nitroxoline equivalent
  f (%): percentage of total mass of excreted drug versus the dose amount, Mean: 0.823%
[2]; mean of dogs, oral tablet, 75 mg nitroxoline equivalent, 0-24 hr
  Total mass of nitroxoline in urine, Mean: 616888 ng
[2]; mean of dogs, oral tablet, 75 mg nitroxoline equivalent, collection 0-2 hr
  Mass of nitroxoline in urine, 0-2 hr, Mean: 89086 ng
[2]; mean of dogs, oral tablet, 75 mg nitroxoline equivalent, collection 2-4 hr
  Mass of nitroxoline in urine, 2-4 hr, Mean: 174725 ng
[2]; mean of dogs, oral tablet, 75 mg nitroxoline equivalent, collection 4-6 hr
  Mass of nitroxoline in urine, 4-6 hr, Mean: 96900 ng
[2]; mean of dogs, oral tablet, 75 mg nitroxoline equivalent, collection 6-8 hr
  Mass of nitroxoline in urine, 6-8 hr, Mean: 22165 ng
[2]; mean of dogs, oral tablet, 75 mg nitroxoline equivalent, collection 8-24 hr
  Mass of nitroxoline in urine, 8-24 hr, Mean: 401325 ng
[3]; In Mice, 41.8 mg/Kg APL-1202 or equivalent dose, 41.8 mg/kg
  24-Hr Accumulated drug in the urine: 139 µg
[3]; individual mice, oral, equivalent of 41.8 mg/Kg nitroxoline, 0-24 hr, 41.8 mg/kg
  Total mass of nitroxoline in urine and wash: 174297 ng and 118681 ng and 56516 ng and 155110 ng and 87439 ng and 143396 ng
[3]; individual mice, oral, equivalent of 41.8 mg/Kg nitroxoline, 41.8 mg/kg
  f (%): percentage of total mass of excreted drug versus the dose amount: 34.7% and 22.3% and 11.1% and 28.4% and 17.7% and 19.8%
[3]; individual mice, oral, equivalent of 41.8 mg/Kg nitroxoline, cage wash 0~2 hr, 41.8 mg/kg
  Mass of nitroxoline, 0~2 wash: 113000 ng and 25240 ng and 15015 ng and 25300 ng and 47650 ng and 19320 ng
[3]; individual mice, oral, equivalent of 41.8 mg/Kg nitroxoline, cage wash 2~6 hr, 41.8 mg/kg
  Mass of nitroxoline, 2~6 wash: 6055 ng and 3618 ng and 8190 ng and 4635 ng and 4868 ng and 1960 ng
[3]; individual mice, oral, equivalent of 41.8 mg/Kg nitroxoline, cage wash 6~24 hr, 41.8 mg/kg
  Mass of nitroxoline, 6~24 wash: 296 ng and 158 ng and 246 ng and 286 ng and 227 ng and 190 ng
[3]; individual mice, oral, equivalent of 41.8 mg/Kg nitroxoline, urine 0-2 hr, 41.8 mg/kg
  Mass of nitroxoline in urine, 0-2 hr: 51600 ng and 84300 ng and 31970 ng and 107380 ng and 31122 ng and 120000 ng
[3]; individual mice, oral, equivalent of 41.8 mg/Kg nitroxoline, urine 2-6 hr, 41.8 mg/kg
  Mass of nitroxoline in urine, 2-6 hr: 3308.5 ng and 5263.2 ng and 1084 ng and 17458 ng and 3500 ng and 1846 ng
[3]; individual mice, oral, equivalent of 41.8 mg/Kg nitroxoline, urine 6-24 hr, 41.8 mg/kg
  Mass of nitroxoline in urine, 6-24 hr: 37.5 ng and 101.64 ng and 10.4 ng and 51 ng and 73 ng and 79.6 ng
[3]; mean of mice, oral, equivalent of 41.8 mg/Kg nitroxoline, 0-24 hr, 41.8 mg/kg
  Total mass of nitroxoline in urine and wash, Mean: 122573 ng
[3]; mean of mice, oral, equivalent of 41.8 mg/Kg nitroxoline, 41.8 mg/kg
  f (%): percentage of total mass of excreted drug versus the dose amount, Mean: 22.3%
[3]; mean of mice, oral, equivalent of 41.8 mg/Kg nitroxoline, cage wash 0~2 hr, 41.8 mg/kg
  Mass of nitroxoline, 0~2 wash, Mean: 40921 ng
[3]; mean of mice, oral, equivalent of 41.8 mg/Kg nitroxoline, cage wash 2~6 hr, 41.8 mg/kg
  Mass of nitroxoline, 2~6 wash, Mean: 4888 ng
[3]; mean of mice, oral, equivalent of 41.8 mg/Kg nitroxoline, cage wash 6~24 hr, 41.8 mg/kg
  Mass of nitroxoline, 6~24 wash, Mean: 234 ng
[3]; mean of mice, oral, equivalent of 41.8 mg/Kg nitroxoline, urine 0-2 hr, 41.8 mg/kg
  Mass of nitroxoline in urine, 0-2 hr, Mean: 71062 ng
[3]; mean of mice, oral, equivalent of 41.8 mg/Kg nitroxoline, urine 2-6 hr, 41.8 mg/kg
  Mass of nitroxoline in urine, 2-6 hr, Mean: 5410 ng
[3]; mean of mice, oral, equivalent of 41.8 mg/Kg nitroxoline, urine 6-24 hr, 41.8 mg/kg
  Mass of nitroxoline in urine, 6-24 hr, Mean: 58.8 ng
[3]; mice, dosed at the equivalent amount of nitroxoline in moles
  increase of drug excretion in the urine as compared to nitroxoline: approximately two times greater
